Tested on: rat small-intestinal brush border membrane vesicles
Test: Inhibitory effect on 33PO4 uptake into rat small-intestinal brush border membrane vesicles (rapid filtration method)
Format: biochemical, Wistar female rat
Conditions: 1 µM test compound, 33PO4 uptake into rat small-intestinal BBMVs, 60 seconds
In short: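 Uptake was terminated by ice-cold 110 mM NaCl, 1 mM KH2PO4, 10 mM HEPES (pH 7.5) buffer and immediate suction filtration, then washing. Using rat small-intestinal BBMVs, retained 33PO4 was quantified by liquid scintillation counting as transport activity.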

In the case of `COCCN1CCC[C@H]1COc1ccc(CN2C(=O)C(C(=O)Nc3ccc(C(F)(F)F)cc3-c3cc(C(F)(F)F)ncn3)=C(O)C3(CCC3)N2C)c(F)c1F` [Example 404, 6-[[2,3-Difluoro-4-[[(2S)-1-(2-methoxyethyl)pirrolidin-2-yl]methoxy]phenyl]methyl]-9-hydroxy-5-methyl-7-oxo-N-[4-(trifluoromethyl)-2-[6-(trifluoromethyl)pyrimidin-4-yl]phenyl]-5,6-diazaspiro[3.5]non-8-ene-8-carboxamide], the “Rate of uptake inhibition (%) (1 µM)” value is reported as 43%.

For `COCCN1CC[C@@H](Oc2ccc(CN3C(=O)C(C(=O)Nc4ccc(C(F)(F)F)cc4-c4cc(C(F)(F)F)ncn4)=C(O)C4(CCC4)N3C)c(F)c2F)C1` [Example 405, 6-[[2,3-Difluoro-4-[(3R)-1-(2-methoxyethyl)pyrrolidin-3-yl]oxyphenyl]methyl]-9-hydroxy-5-methyl-7-oxo-N-[4-(trifluoromethyl)-2-[6-(trifluoromethyl)pyrimidin-4-yl)phenyl]-5,6-diazaspiro[3.5]non-8-ene-8-carboxamide], the “Rate of uptake inhibition (%) (1 µM)” value was 30%.

`COCCN1CC(Oc2ccc(CN3C(=O)C(C(=O)Nc4ccc(C(F)(F)F)cc4-c4cc(C(F)(F)F)ncn4)=C(O)C4(CCC4)N3C)c(F)c2F)C1` [Example 406, 6-[[2,3-Difluoro-4-[1-(2-methoxyethyl)azetidin-3-yl]oxyphenyl]methyl]-9-hydroxy-5-methyl-7-oxo-N-[4-(trifluoromethyl)-2-[6-(trifluoromethl)pyrimidin-4-yl]phenyl]-5,6-diazaspiro[3.5]non-8-ene-8-carboxamide] was tested, and the “Rate of uptake inhibition (%) (1 µM)” value was 27%.

In the case of `CN1N(Cc2ccc(OC(C)(C)CN3CCOCC3)c(F)c2F)C(=O)C(C(=O)Nc2ccc(C(F)(F)F)cc2-c2cc(C(F)(F)F)ncn2)=C(O)C12CCC2` [Example 407, 6-[[2,3-Difluoro-4-(2-methyl-1-morpholin-4-ylpropan-2-yl)oxyphenyl]methyl]-9-hydroxy-5-methyl-7-oxo-N-[4-(trifluoromethyl)-2-[6-(trifluoromethyl)pyrimidin-4-yl]phenyl]-5,6-diazaspiro[3.5]non-8-ene-8-carboxamide], the “Rate of uptake inhibition (%) (1 µM)” value is reported as 30%.

With `CC(CN1CCOCC1)Oc1ccc(CN2C(=O)C(C(=O)Nc3ccc(C(F)(F)F)cc3-c3cc(C(F)(F)F)ncn3)=C(O)C3(CCC3)N2C)c(F)c1F` (centres unmarked) [Example 408] the “Rate of uptake inhibition (%) (1 µM)” value was 47%.

With `CN1CCC(Oc2ccc(CN3C(=O)C(C(=O)Nc4ccc(C(F)(F)F)cc4-c4cc(C(F)(F)F)ncn4)=C(O)C4(CCC4)N3C)c(F)c2F)CC1` [Example 411] the “Rate of uptake inhibition (%) (1 µM)” value was 32%.

`CN(CCOc1ccc(CN2C(=O)C(C(=O)Nc3ccc(C(F)(F)F)cc3-c3cc(C(F)(F)F)ncn3)=C(O)C3(CCCC3)N2C)c(F)c1F)C1COC1` [Example 412, 7-(2,3-Difluoro-4-(2-(methyl(oxetan-3-yl)amino)ethoxy)benzyl)-10-hydroxy-6-methyl-8-oxo-N-(4-(trifluoromethyl)-2-(6-(trifluoromethyl)pyrimidin-4-yl)phenyl)-6,7-diazaspiro[4.5]dec-9-ene-9-carboxamide] was tested, and the “Rate of uptake inhibition (%) (1 µM)” value was 52%.

`COCCN(C)CCNc1ccc(CN2C(=O)C(C(=O)Nc3ccc(C(F)(F)F)cc3-c3cc(C(F)(F)F)ncn3)=C(O)C3(CCCC3)N2C)c(F)c1F` [Example 417, 7-(2,3-Difluoro-4-((2-((2-methoxyethyl)(methyl)amino)ethyl)amino)benzyl)-10-hydroxy-6-methyl-8-oxo-N-(4-(trifluoromethyl)-2-(6-(trifluoromethyl)pyrimidin-4-yl)phenyl)-6,7-diazaspiro[4.5]dec-9-ene-9-carboxamide] was tested, and the “Rate of uptake inhibition (%) (1 µM)” value was 48%.

`CN1N(Cc2ccc(OCCOCCNCC(O)CO)c(F)c2F)C(=O)C(C(=O)Nc2ccc(C(F)(F)F)cc2-c2cc(C(F)(F)F)ncn2)=C(O)C12CCCC2` (centres unmarked) [Example 419, 7-[[4-[2-[2-(2,3-Dihydroxypropylamino)ethoxy]ethoxy]-2,3-difluorophenyl]methyl]-10-hydroxy-6-methyl-8-oxo-N-[4-(trifluoromethyl)-2-[6-(trifluoromethyl)pyrimidin-4-yl]phenyl]-6,7-diazaspiro[4.5]dec-9-ene-9-carboxamide] was tested, and the “Rate of uptake inhibition (%) (1 µM)” value was 22%.

With `CN(CCOCCOc1ccc(CN2C(=O)C(C(=O)Nc3ccc(C(F)(F)F)cc3-c3cc(C(F)(F)F)ncn3)=C(O)C3(CCCC3)N2C)c(F)c1F)C[C@H](O)[C@@H](O)[C@H](O)[C@H](O)CO` [Example 420, 7-[[2,3-Difluoro-4-[2-[2-[methyl-[(2S,3R,4R,5R)-2,3,4,5,6-pentahydroxyhexyl]amino]ethoxy]ethoxy]phenyl]methyl]-10-hydroxy-6-methyl-8-oxo-N-[4-(trifluoromethyl)-2-[6-(trifluoromethyl)pyrimidin-4-yl]phenyl]-6,7-diazaspiro[4.5]dec-9-ene-9-carboxamide] the “Rate of uptake inhibition (%) (1 µM)” value was 19%.

For `CN(CCOCCOCCOCCOCCOc1ccc(CN2C(=O)C(C(=O)Nc3ccc(C(F)(F)F)cc3-c3cc(C(F)(F)F)ncn3)=C(O)C3(CCCC3)N2C)c(F)c1F)C[C@@H](O)[C@H](O)[C@@H](O)[C@@H](O)CO` [Example 421, 7-[[2,3-Difluoro-4-[2-[2-[2-[2-[2-[methyl-[(2R,3S,4S,5S)-2,3,4,5,6-pentahydroxyhexyl]amino]ethoxy]ethoxy]ethoxy]ethoxy]ethoxy]phenyl]methyl]-10-hydroxy-6-methyl-8-oxo-N-[4-(trifluoromethyl)-2-[6-(trifluoromethyl)pyrimidin-4-yl]phenyl]-6,7-diazaspiro[4.5]dec-9-ene-9-carboxamide], the “Rate of uptake inhibition (%) (1 µM)” value was 24%.

In the case of `CN(C[C@H](O)[C@@H](O)[C@H](O)[C@H](O)CO)C(=O)CCOCCOCCOc1ccc(CN2C(=O)C(C(=O)Nc3ccc(C(F)(F)F)cc3-c3cc(C(F)(F)F)ncn3)=C(O)C3(CCCC3)N2C)c(F)c1F` [Example 422], the “Rate of uptake inhibition (%) (1 µM)” value is reported as 29%.

`CN(C[C@H](O)[C@@H](O)[C@H](O)[C@H](O)CO)C(=O)CCOCCOCCOCCOc1ccc(CN2C(=O)C(C(=O)Nc3ccc(C(F)(F)F)cc3-c3cc(C(F)(F)F)ncn3)=C(O)C3(CCCC3)N2C)c(F)c1F` [Example 423] was tested, and the “Rate of uptake inhibition (%) (1 µM)” value was 5%.

For `CN1N(Cc2ccc(OCCOCCOCCOCCC(=O)NCC(O)CO)c(F)c2F)C(=O)C(C(=O)Nc2ccc(C(F)(F)F)cc2-c2cc(C(F)(F)F)ncn2)=C(O)C12CCCC2` (centres unmarked) [Example 424], the “Rate of uptake inhibition (%) (1 µM)” value was 17%.

`CN(CCOCCC(=O)N(C)C[C@H](O)[C@@H](O)[C@H](O)[C@H](O)CO)CCOc1ccc(CN2C(=O)C(C(=O)Nc3ccc(C(F)(F)F)cc3-c3cc(C(F)(F)F)ncn3)=C(O)C3(CCCC3)N2C)c(F)c1F` [Example 425] was tested, and the “Rate of uptake inhibition (%) (1 µM)” value was 5%.

With `CN(CCOCCC(=O)NCC(O)CO)CCOc1ccc(CN2C(=O)C(C(=O)Nc3ccc(C(F)(F)F)cc3-c3cc(C(F)(F)F)ncn3)=C(O)C3(CCCC3)N2C)c(F)c1F` (centres unmarked) [Example 426] the “Rate of uptake inhibition (%) (1 µM)” value was 24%.

`CN1N(Cc2ccc(OCCOCCNC(=O)[C@@H](O)[C@H](O)[C@@H](O)[C@@H](O)CO)c(F)c2F)C(=O)C(C(=O)Nc2ccc(C(F)(F)F)cc2-c2cc(C(F)(F)F)ncn2)=C(O)C12CCCC2` [Example 427, 7-[[2,3-Difluoro-4-[2-[2-[[(2S,3R,4S,5S)-2,3,4,5,6-pentahydroxyhexanoyl]amino]ethoxy]ethoxy]phenyl]methyl]-10-hydroxy-6-methyl-8-oxoN-[4-(trifluoromethyl)-2-[6-(trifluoromethyl)pyrimidin-4-yl]phenyl]-6,7-diazaspiro[4.5]dec-9-ene-9-carboxamide] was tested, and the “Rate of uptake inhibition (%) (1 µM)” value was 12%.

In the case of `CN1N(Cc2ccc(OCCOCCOCCOCCNC(=O)[C@@H](O)[C@H](O)[C@@H](O)[C@@H](O)CO)c(F)c2F)C(=O)C(C(=O)Nc2ccc(C(F)(F)F)cc2-c2cc(C(F)(F)F)ncn2)=C(O)C12CCCC2` [Example 428, 7-[[2,3-Difluoro-4-[2-[2-[2-[2-[[(2S,3R,4S,5S)-2,3,4,5,6-pentahydroxyhexanoyl]amino]ethoxy]ethoxy]ethoxy]ethoxy]phenyl]methyl]-10-hydroxy-6-methyl-8-oxo-N-[4-(trifluoromethyl)-2-[6-(trifluoromethyl)pyrimidin-4-yl]phenyl]-6,7-diazaspiro[4.5]dec-9-ene-9-carboxamide], the “Rate of uptake inhibition (%) (1 µM)” value is reported as 14%.

With `COCCN(C)CCOCCOc1ccc(CN2C(=O)C(C(=O)Nc3ccc(C(F)(F)F)cc3-c3cc(C(F)(F)F)ncn3)=C(O)C3(CCCC3)N2C)c(F)c1F` [Example 429, 7-[[2,3-Difluoro-4-[2-[2-[2-methoxyethyl(methyl)amino]ethoxy]ethoxy]phenyl]methyl]-10-hydroxy-6-methyl-8-oxo-N-[4-(trifluoromethyl)-2-[6-(trifluoromethyl)pyrimidin-4-yl]phenyl]-6,7-diazaspiro[4.5]dec-9-ene-9-carboxamide] the “Rate of uptake inhibition (%) (1 µM)” value was 41%.

With `COCCN(C)CCOCCOCCOc1ccc(CN2C(=O)C(C(=O)Nc3ccc(C(F)(F)F)cc3-c3cc(C(F)(F)F)ncn3)=C(O)C3(CCCC3)N2C)c(F)c1F` [Example 430] the “Rate of uptake inhibition (%) (1 µM)” value was 29%.

With `COCCN(C)CCOCCOCCOCCOc1ccc(CN2C(=O)C(C(=O)Nc3ccc(C(F)(F)F)cc3-c3cc(C(F)(F)F)ncn3)=C(O)C3(CCCC3)N2C)c(F)c1F` [Example 431] the “Rate of uptake inhibition (%) (1 µM)” value was 26%.

With `COCCN(C)CCOCCOCCOCCOCCOc1ccc(CN2C(=O)C(C(=O)Nc3ccc(C(F)(F)F)cc3-c3cc(C(F)(F)F)ncn3)=C(O)C3(CCCC3)N2C)c(F)c1F` [Example 432] the “Rate of uptake inhibition (%) (1 µM)” value was 11%.

In the case of `CN1N(Cc2ccc(OCCNCCS(=O)(=O)O)c(F)c2F)C(=O)C(C(=O)Nc2ccc(C(F)(F)F)cc2-c2cc(C(F)(F)F)ncn2)=C(O)C12CCCC2` [Example 435, 2-[2-[2,3-Difluoro-4-[[10-hydroxy-6-methyl-8-oxo-9-[[4-(trifluoromethyl)-2-[6-(trifluoromethyl)pyrimidin-4-yl]phenyl]carbamoyl]-6,7-diazaspiro[4.5]dec-9-en-7-yl]methyl]phenoxylethy]amino]ethanesulfonic acid], the “Rate of uptake inhibition (%) (1 µM)” value (1 µM) is reported as 11%.
